# Assay results from patent publication US12590083B2, “Inhibitors of spinster homolog 2 (SPNS2) for use in therapy” (University of Virginia Patent Foundation, priority 2019, dated 2026).
# Structures can show the parent of a compound that is named as a salt.
# Molecular target: T1, human SPNS2 (Homo sapiens, UniProt Q8IVW8)
# T1 construct: expressed in transfected cells; host or cells: Saccharomyces cerevisiae strain with forced expression of a mammalian SphK and human SPNS2
# T1 sequence (Q8IVW8 1-549): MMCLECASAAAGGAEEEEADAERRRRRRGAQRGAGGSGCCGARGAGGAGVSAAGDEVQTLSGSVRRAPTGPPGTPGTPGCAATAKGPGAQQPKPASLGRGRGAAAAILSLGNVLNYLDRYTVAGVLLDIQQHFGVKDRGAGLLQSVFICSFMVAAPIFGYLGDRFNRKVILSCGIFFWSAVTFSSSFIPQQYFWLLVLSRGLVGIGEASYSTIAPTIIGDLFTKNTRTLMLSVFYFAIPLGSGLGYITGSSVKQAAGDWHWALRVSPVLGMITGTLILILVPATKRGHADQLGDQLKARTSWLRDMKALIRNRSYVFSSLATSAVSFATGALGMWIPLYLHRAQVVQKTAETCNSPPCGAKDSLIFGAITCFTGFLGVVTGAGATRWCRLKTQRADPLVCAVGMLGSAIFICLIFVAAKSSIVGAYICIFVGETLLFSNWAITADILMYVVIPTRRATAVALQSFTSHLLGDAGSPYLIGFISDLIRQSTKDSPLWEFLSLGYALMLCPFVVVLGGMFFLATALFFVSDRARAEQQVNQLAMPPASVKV
# Test: S1P transporter assay: growth of S. cerevisiae strain with forced expression of a mammalian SphK and human SPNS2
# Assay type: cell-based
# Details: in vitro inhibition of SPNS2; growth of S. cerevisiae strain expressing mammalian SphK and human SPNS2; compounds as their pharmaceutical salts
# Text: Transporter assays are vectorial and, therefore, require measurement of the transported analyte in different compartments. The assay of S1P transporters is problematic because S1P is exported, but not imported, by SPNS2, which obviates measuring uptake of mass- or radio-labeled S1P into transporter-expressing cells.
# To assay for SPNS2 inhibitor hits, we took advantage of the growth inhibitory effects of excessive levels of phosphorylated Long Chain Base (phospho-LCB) levels on the budding yeast, S. cerevisiae (Kharel Y, et al. Saccharomyces cerevisiae as a platform for assessing sphingolipid lipid kinase inhibitors. PLoS One 13, e0192179 (2018) PMC5908134). Yeast lack the desaturase that converts dihydroceramide to ceramide and, therefore, have neither sphingosine nor S1P. Rather, yeast have the reduced form, dihydrosphingosine, and the 4-hydroxyl analog, phytosphingosine and their respective phosphates. Like all eukaryotes, the yeast synthesizes (via LCB kinases (SphKs)) and degrades (via phospho-LCB lyase and phosphatase) phospho-LCBs, (dhS1P, phytoS1P). Yeast lack phospho-LCB transporters such as SPNS2, which are found only in vertebrates. To assess inhibition of SPNS2 in vitro, we used a strain of S. cerevisiae wherein expression of a mammalian SphK and human SPNS2 were forced. SPNS2 inhibitors decrease the growth of this strain. Table 2 below presents in vitro inhibition data against SPNS2 for exemplary compounds, presented here as their pharmaceutical salts, of the disclosure (A≤2 μM, B>2 μM).
row,IC50 [nM],Structure (SMILES)
1,> 2000,"CCCCCCCCCCc1cccc(-c2noc([C@@H]3CCN(C(=N)N)C3)n2)c1 [Compound 7t, (R)-3-(3-(3-decylphenyl)-1,2,4-oxadiazol-5-yl)pyrrolidine-1-carboximidamide hydrochloride]"
2,≤ 2000,"CCCCCCCCCCCc1ccc(-c2noc([C@@H]3CCN(C(=N)N)C3)n2)cc1 [Compound 7xa, (R)-3-(3-(4-undecylphenyl)-1,2,4-oxadiazol-5-yl)pyrrolidine-1-carboximidamide hydrochloride]"
3,≤ 2000,"CCCCCCCCCc1ccc(-c2noc([C@@H]3CCN(C(=N)N)C3)n2)cc1 [Compound 7xb, (R)-3-(3-(4-nonylphenyl)-1,2,4-oxadiazol-5-yl)pyrrolidine-1-carboximidamide hydrochloride]"
4,≤ 2000,"CCCCCCCCCCCc1ccc(-c2noc([C@@H]3CCCN(C(=N)N)C3)n2)cc1 [Compound 7ya, (R)-3-(3-(4-undecylphenyl)-1,2,4-oxadiazol-5-yl)piperidine-1-carboximidamide hydrochloride]"
5,≤ 2000,"CCCCCCCCCc1ccc(-c2noc([C@@H]3CCCN(C(=N)N)C3)n2)cc1 [Compound 7yb, (R)-3-(3-(4-nonylphenyl)-1,2,4-oxadiazol-5-yl)piperidine-1-carboximidamide hydrochloride]"
6,≤ 2000,CCCCCCCCCOc1ccc(-c2noc([C@@H]3CCCNC3)n2)cc1C(F)(F)F [Compound 12e]
7,> 2000,"c1cc(N2CCCCC2)ncc1-c1noc([C@@H]2CCNC2)n1 [Compound 13a, (R)-3-(6-(piperidin-1-yl)pyridin-3-yl)-5-(pyrrolidin-3-yl)-1,2,4-oxadiazole hydrochloride]"
8,> 2000,"CCCCCCCCNc1ccc(-c2noc([C@@H]3CCNC3)n2)cn1 [Compound 13b, (R)—N-octyl-5-(5-(pyrrolidin-3-yl)-1,2,4-oxadiazol-3-yl)pyridin-2-amine hydrochloride]"
9,> 2000,"Fc1cc(Nc2ccc(-c3noc([C@@H]4CCCNC4)n3)cn2)ccc1OC(F)(F)F [Compound 13c, (R)—N-(3-fluoro-4-(trifluoromethoxy)phenyl)-5-(5-(piperidin-3-yl)-1,2,4-oxadiazol-3-yl)pyridin-2-amine hydrochloride]"
10,> 2000,"c1cc(N2CCOCC2)ncc1-c1noc([C@@H]2CCNC2)n1 [Compound 13d, (R)-4-(5-(5-(pyrrolidin-3-yl)-1,2,4-oxadiazol-3-yl)pyridin-2-yl)morpholine hydrochloride]"
11,> 2000,"Clc1ccccc1Nc1ccc(-c2noc([C@@H]3CCNC3)n2)cn1 [Compound 13e, (R)—N-(2-chlorophenyl)-5-(5-(pyrrolidin-3-yl)-1,2,4-oxadiazol-3-yl)pyridin-2-amine hydrochloride]"
12,> 2000,"Brc1ccc(Br)c(Nc2ccc(-c3noc([C@@H]4CCNC4)n3)cn2)c1 [Compound 13f, (R)—N-(2,5-dibromophenyl)-5-(5-(pyrrolidin-3-yl)-1,2,4-oxadiazol-3-yl)pyridin-2-amine hydrochloride]"

# Second part, the molecule before the results:
row,Structure (SMILES),IC50 [nM]
1,"CCCCCCCCCCCc1ccc(-c2noc(C3CNC3)n2)cc1 [Compound 5a, 5-(azetidin-3-yl)-3-(4-undecylphenyl)-1,2,4-oxadiazole 2,2,2-trifluoroacetate]",> 2000
2,"CCCCCCCOc1ccc2cc(-c3noc([C@@H]4CCNC4)n3)ccc2c1 [Compound 5aa, (R)-3-(6-(heptyloxy)naphthalen-2-yl)-5-(pyrrolidin-3-yl)-1,2,4-oxadiazole hydrochloride]",≤ 2000
3,"CCCCCCCCCCc1ccc(-c2noc([C@H]3CCNC3)n2)cc1 [Compound 5e, (S)-3-(3-(4-decylphenyl)-1,2,4-oxadiazol-5-yl)pyrrolidin-1-ium 2,2,2-trifluoroacetate]",> 2000
4,"CCCCCCCCCCc1ccc(-c2noc([C@H]3CCCNC3)n2)cc1 [Compound 5f, (S)-3-(3-(4-decylphenyl)-1,2,4-oxadiazol-5-yl)piperidin-1-ium 2,2,2-trifluoroacetate]",> 2000
5,"CCCCCCCCCCc1ccc(-c2noc([C@@H]3CCNC3)n2)cc1 [Compound 5g, (R)-3-(3-(4-decylphenyl)-1,2,4-oxadiazol-5-yl)pyrrolidin-1-ium 2,2,2-trifluoroacetate]",> 2000
6,"CCCCCCCCCCc1ccc(-c2noc([C@@H]3CCCNC3)n2)cc1 [Compound 5h, (R)-3-(3-(4-decylphenyl)-1,2,4-oxadiazol-5-yl)piperidin-1-ium 2,2,2-trifluoroacetate]",> 2000
7,"CCCCCCCCCCc1ccc(-c2noc(CC3CNC3)n2)cc1 [Compound 5j, 5-(azetidin-3-ylmethyl)-3-(4-decylphenyl)-1,2,4-oxadiazole 2,2,2-trifluoroacetate]",≤ 2000
8,"CCCCCCCCCCc1ccc(-c2noc(C[C@H]3CCNC3)n2)cc1 [Compound 5l, (R)-3-(4-decylphenyl)-5-(pyrrolidin-3-ylmethyl)-1,2,4-oxadiazole 2,2,2-trifluoroacetate]",≤ 2000
9,"CCCCCCCCCCc1ccc(-c2noc(C[C@@H]3CCNC3)n2)cc1 [Compound 5p, (S)-3-(4-decylphenyl)-5-(pyrrolidin-3-ylmethyl)-1,2,4-oxadiazole 2,2,2-trifluoroacetate]",≤ 2000
10,"CCCCCCCCCCc1ccc(-c2noc(C[C@@H]3CCCNC3)n2)cc1 [Compound 5q, (S)-3-(4-decylphenyl)-5-(piperidin-3-ylmethyl)-1,2,4-oxadiazole 2,2,2-trifluoroacetate]",≤ 2000
11,"CCCCCCCCCCCc1ccc(-c2noc(C3CN(C(=N)N)C3)n2)cc1 [Compound 7a, 3-(3-(4-undecylphenyl)-1,2,4-oxadiazol-5-yl)azetidine-1-carboximidamide hydrochloride]",> 2000
12,"CCCCCCCCCCc1ccc(-c2noc(C3CN(C(=N)N)C3)n2)cc1 [Compound 7b, 3-(3-(4-decylphenyl)-1,2,4-oxadiazol-5-yl)azetidine-1-carboximidamide hydrochloride]",≤ 2000
13,"CCCCCCCCCc1ccc(-c2noc(C3CN(C(=N)N)C3)n2)cc1 [Compound 7c, 3-(3-(4-nonylphenyl)-1,2,4-oxadiazol-5-yl)azetidine-1-carboximidamide hydrochloride]",≤ 2000
14,"CCCCCCCCc1ccc(-c2noc(C3CN(C(=N)N)C3)n2)cc1 [Compound 7d, 3-(3-(4-octylphenyl)-1,2,4-oxadiazol-5-yl)azetidine-1-carboximidamide hydrochloride]",> 2000
15,"CCCCCCCCCCc1ccc(-c2noc([C@H]3CCN(C(=N)N)C3)n2)cc1 [Compound 7e, (S)-amino(3-(3-(4-decylphenyl)-1,2,4-oxadiazol-5-yl)pyrrolidin-1-yl)methaniminium chloride]",> 2000
16,"CCCCCCCCCCc1ccc(-c2noc([C@H]3CCCN(C(=N)N)C3)n2)cc1 [Compound 7f, (S)-amino(3-(3-(4-decylphenyl)-1,2,4-oxadiazol-5-yl)piperidin-1-yl)methaniminium chloride]",≤ 2000
17,"CCCCCCCCCCc1ccc(-c2noc([C@@H]3CCN(C(=N)N)C3)n2)cc1 [Compound 7g, (R)-amino(3-(3-(4-decylphenyl)-1,2,4-oxadiazol-5-yl)pyrrolidin-1-yl)methaniminium chloride]",> 2000
18,"CCCCCCCCCCc1ccc(-c2noc([C@@H]3CCCN(C(=N)N)C3)n2)cc1 [Compound 7h, (R)-amino(3-(3-(4-decylphenyl)-1,2,4-oxadiazol-5-yl)piperidin-1-yl)methaniminium chloride]",> 2000
19,CCCCCCCCCCc1ccc(-c2noc(CC3CN(C(=N)N)C3)n2)cc1 [Compound 7i],≤ 2000
20,"CCCCCCCOc1ccc2cc(-c3noc([C@@H]4CCN(C(=N)N)C4)n3)ccc2c1 [Compound 7kk, (R)-3-(3-(6-(heptyloxy)naphthalen-2-yl)-1,2,4-oxadiazol-5-yl)pyrrolidine-1-carboximidamide hydrochloride]",≤ 2000
21,"CCCCCCCCCCc1ccc(-c2noc(C[C@@H]3CCN(C(=N)N)C3)n2)cc1 [Compound 7p, (S)-3-((3-(4-decylphenyl)-1,2,4-oxadiazol-5-yl)methyl)pyrrolidine-1-carboximidamide 2,2,2-trifluoroacetate]",≤ 2000
22,"CCCCCCCCCCc1ccc(-c2noc(C[C@@H]3CCCN(C(=N)N)C3)n2)cc1 [Compound 7q, (S)-3-((3-(4-decylphenyl)-1,2,4-oxadiazol-5-yl)methyl)piperidine-1-carboximidamide 2,2,2-trifluoroacetate]",≤ 2000
